From patent publication US8546357B2, “Boron-containing small molecules for controlling ectoparasites” (priority 2011, dated 2013)

Experiments:
[1] = system: Lone star tick larvae (Amblyomma americanum); experiment: Larval immersion microassay against larval-stage Lone star ticks; conditions: Amblyomma americanum, 24 h, read-out: activity (percent larval mortality)
Procedure: The larval immersion microassay was conducted as described in detail in White, et al., J. Med. Entomol. 41: 1034-1042 (2004). Compounds of the invention were formulated in dimethylsulfoxide (DMSO) to prepare a stock solution at a concentration of at least 10 mM. Using 96-well microtiter plates, an aliquot of the mM sample was subsequently diluted in a water-based solution containing 1% ethanol and 0.2% Triton X-100, to obtain the desired concentration (typically 0.3 mM or lower) of compound in a volume of 0.1 ml (minimum n=3 replicates per compound or concentration). Approximately 30-50 Lone star tick larvae (Amblyomma americanum) were submerged into each well containing compounds. After a 30 minute immersion period, larvae were removed with a wide-bore pipette tip in 0.05 ml of fluid, dispensed into a commercial paper tissue biopsy bag which was sealed at the top with a plastic dialysis clip, inverted and allowed to air dry for 60 minutes. Bags containing larvae were then incubated at approximately 27 degrees Celsius and >90% relative humidity. After 24 hours, bags were opened, live and dead larvae were counted and percent larval mortality was calculated.
7 and 8 contain one chiral center each, and are racemic mixtures comprised of approximately 50% R- and 50% S-enantiomer. In vitro and surrogate animal (rat) studies were conducted to evaluate the biological activity of the R- and S-enantiomers of 7 and 8. For the in vitro study, larvae of the Lone star tick (Amblyomma americanum) were exposed to 9, 10, 11 and 12 using the larval immersion microassay at a concentration of no greater than 0.3 mM. Following exposure, larvae were removed, transferred to a tissue biopsy bag and incubated at approximately 27 degrees Celsius and >90% relative humidity. After 24 hours, biopsy bags were opened and the numbers of live and dead larvae were determined

[2] = Tolerability of oral treatment in dogs; assay type: in vivo, dog
Procedure: (§1) The therapeutic (knockdown) and residual efficacy of 5, administered orally at a point dose of 25 mg/kg bodyweight, was evaluated against adult American dog tick (D. variabilis) infestations on dogs. Six beagle dogs were allocated to one of two treatment groups, an untreated control group (n=4 dogs) or 5 group (n=2 dogs). On Day 0, two dogs were treated with 5 via oral gavage (25 mg/ml 5, dissolved in a solution of 55% polyethylene glycol-300, 35% propylene glycol and 10% water) at a point dose of approximately 25 mg/kg. Twenty-four (24) hours before treatment (Day −1), all dogs were infested with approximately 50 unfed, adult-stage American dog ticks (D. variabilis; approximately 50% male and 50% female). On Day 1, approximately 24 hours after treatment, thumb counts were conducted to determine the number and life-status classification of ticks present on all dogs (normal, moribund or dead; attached or detached). Ticks were not removed during thumb counts. On Day 2, approximately 48 hours after treatment, all ticks were classified and removed from dogs. Dogs were re-infested with approximately 50 unfed, adult D. variabilis ticks on Days 5 and 12, with tick classification, counts and removal on Days 7 and 14 (approximately 48 hours after each infestation).
(§2) The therapeutic (knockdown) and residual efficacy of 7 and 8, each administered orally at a point dose of 25 mg/kg bodyweight, was evaluated against adult tick (Dermacentor variabilis and Rhipicephalus sanguineus) and adult cat flea (Ctenocephalides felis) infestations on dogs. Twelve (12) male and female beagle dogs were randomly allocated to one of three treatment groups, four (4) dogs per group: Untreated control; 7, 25 mg/kg; and 8, 25 mg/kg. On Day −1, all dogs were infested with approximately 50 unfed, adult D. variabilis ticks. On Day 0, dogs were orally administered gelatin capsules containing either 7 or 8 (50% technical active, 47% microcrystalline cellulose and 3% croscarmellose sodium, w/w). Ticks were counted and classified, but not removed, on all dogs on Day 1, approximately 24 hours after treatment. On Day 2, approximately 48 hours after treatment, ticks were counted, classified and removed. Dogs were re-infested with the same number of D. variabilis ticks on Days 5, 12, 19 and 28 and tick counts were conducted on Days 7, 14, 21 and 30.
The therapeutic (knockdown) and residual efficacy of 7, administered orally at a point dose of 35 mg/kg bodyweight, was evaluated against adult tick (Dermacentor variabilis and Rhipicephalus sanguineus) and adult cat flea (Ctenocephalides felis) infestations on dogs. Twelve (12) male and female beagle dogs were allocated to either an untreated, negative control group or 7 group (n=6 dogs per group). Dogs were infested with approximately 50 unfed, adult D. variabilis ticks on Days −1, 5, 12, 19, 28, 35 and 42. On Day 0, dogs were orally administered gelatin capsules containing Compound 8194 (50% technical active, 47% microcrystalline cellulose and 3% croscarmellose sodium, w/w) at a point dose of 35 mg/kg. […] GM percent efficacy of treatments against both tick species and fleas was calculated using the following formula: […]
The therapeutic efficacy and speed of kill of 7, administered orally at a point dose of 20 mg/kg bodyweight, was evaluated against adult cat flea (Ctenocephalides felis) infestations on dogs. […]

[3] = system: brown dog tick (Rhipicephalus sanguineus); experiment: Residual efficacy against adult brown dog tick infestations on dogs, oral; assay type: in vivo; conditions: Day 32
Procedure: (§3) Immediately following removal of D. variabilis ticks on Day 30, dogs were co-infested with approximately 50 adult, unfed brown dog ticks (R. sanguineus, approximately 50% male and 50% female) and approximately 100 adult, unfed cat fleas (C. felis, approximately 50% male and 50% female). Ticks and fleas were counted and removed on Day 32 (approximately 48 hours after infestation). GM percent efficacy of treatments against both tick species and fleas was calculated using the following formula: […]
(§4) The therapeutic (knockdown) and residual efficacy of 7, administered orally at a point dose of 35 mg/kg bodyweight, was evaluated against adult tick (Dermacentor variabilis and Rhipicephalus sanguineus) and adult cat flea (Ctenocephalides felis) infestations on dogs. Twelve (12) male and female beagle dogs were allocated to either an untreated, negative control group or 7 group (n=6 dogs per group). Dogs were infested with approximately 50 unfed, adult D. variabilis ticks on Days −1, 5, 12, 19, 28, 35 and 42. On Day 0, dogs were orally administered gelatin capsules containing Compound 8194 (50% technical active, 47% microcrystalline cellulose and 3% croscarmellose sodium, w/w) at a point dose of 35 mg/kg. D. variabilis tick counts and classification were conducted on Day 1 (thumb count, approximately 24 hours after treatment) and Days 2, 7, 14, 21, 30, 37 and 44 (approximately 48 hours after treatment). Following removal of D. variabilis ticks on Day 30, all dogs were co-infested with approximately 50 unfed, adult brown dog ticks (R. sanguineus) and approximately 100 unfed, adult cat fleas (C. felis). Brown dog tick and cat flea counts were conducted on Day 32 (approximately 48 hours after infestation). GM percent efficacy of treatments against both tick species and fleas was calculated using the following formula: […]
(§5) The therapeutic (knockdown) and residual efficacy of S-enantiomer, 9, administered orally at a point dose of 25 mg/kg bodyweight, was evaluated against adult tick (Dermacentor variabilis and Rhipicephalus sanguineus) and adult cat flea (Ctenocephalides felis) infestations on dogs. Twelve (12) male and female beagle dogs were allocated to either an untreated, negative control group or 9 group (n=6 dogs per group). Dogs were infested with approximately 50 unfed, adult D. variabilis ticks on Days −1, 5, 12, 19, and 28. On Day 0, dogs were orally administered gelatin capsules containing 9 (50% technical active, 47% microcrystalline cellulose and 3% croscarmellose sodium, w/w) at a point dose of 25 mg/kg. D. variabilis tick counts and classification were conducted on Day 1 (thumb count, approximately 24 hours after treatment) and Days 2, 7, 14, 21 and 30 (approximately 48 hours after treatment). Following removal of D. variabilis ticks on Day 30, all dogs were co-infested with approximately 50 unfed, adult brown dog ticks (R. sanguineus) and approximately 100 unfed, adult cat fleas (C. felis). Brown dog tick and cat flea counts were conducted on Day 32 (approximately 48 hours after infestation). GM percent efficacy of treatments against both tick species and fleas was calculated using the following formula: […]

[4] = system: adult American dog tick (Dermacentor variabilis); experiment: Therapeutic (knockdown) and residual efficacy against adult American dog tick infestations on dogs, oral; assay type: in vivo; conditions: for therapeutic efficacy / Residual efficacy: oral gavage 25 mg/kg
Procedure: as §1, §2, §4
The therapeutic (knockdown) and residual efficacy of S-enantiomer, 9, administered orally at a point dose of 25 mg/kg bodyweight, was evaluated against adult tick (Dermacentor variabilis and Rhipicephalus sanguineus) and adult cat flea (Ctenocephalides felis) infestations on dogs. […]

[5] = system: cat flea (Ctenocephalides felis); experiment: Residual efficacy against adult cat flea infestations on dogs, oral; assay type: in vivo; conditions: Day 32
Procedure: as §3, §4, §5

[6] = Table 2, oral capsule 25 mg/kg, Day 2
[7] = Table 2, oral capsule 25 mg/kg, Day 7
[8] = Table 2, oral capsule 25 mg/kg, Day 14
[9] = Table 2, oral capsule 25 mg/kg, Day 21
[10] = Table 2, oral capsule 25 mg/kg, Day 30
[11] = Table 7, oral capsule 25 mg/kg, Day 1
[12] = Table 7, oral capsule 25 mg/kg, Day 2
[13] = Table 7, oral capsule 25 mg/kg, Day 7
[14] = Table 7, oral capsule 25 mg/kg, Day 14
[15] = Table 7, oral capsule 25 mg/kg, Day 21
[16] = Table 7, oral capsule 25 mg/kg, Day 30

Cc1cc(C2=NOC(c3cc(Cl)c(F)c(Cl)c3)(C(F)(F)F)C2)ccc1C(=O)NCc1ccc2c(c1)B(O)OC2(C)C (racemic) [Compound 8, 4-(5-(3,5-Dichloro-4-fluorophenyl)-5-(trifluoromethyl)-4,5-dihydroisoxazol-3-yl)-N-((1-hydroxy-3,3-dimethyl-1,3-dihydrobenzo[c][1,2]oxaborol-6-yl)methyl)-2-methylbenzamide]
mortality at 300 µM [1]: ≥ 80% | tolerability ([2]; Example 6, oral capsule 25 mg/kg): well tolerated | Geometric mean group live parasite counts ([3]; Table 2, oral capsule 25 mg/kg): 4.1 | continued residual efficacy ([4]; Example 6, oral capsule 25 mg/kg, through at least 14 days): 100% | Geometric mean group live parasite counts ([4]; Table 2, oral capsule 25 mg/kg, Day 1): 0.0 | % efficacy [4, 6]: (100) % | Geometric mean group live parasite counts [4, 6]: 0.0 | % efficacy [4, 7]: (100) % | Geometric mean group live parasite counts [4, 7]: 0.0 | % efficacy [4, 8]: (100) % | Geometric mean group live parasite counts [4, 8]: 0.0 | % efficacy [4, 9]: (98.4) % | Geometric mean group live parasite counts [4, 9]: 0.7 | % efficacy [4, 10]: (81.0) % | Geometric mean group live parasite counts [4, 10]: 6.7 | Geometric mean group live parasite counts ([5]; Table 2, oral capsule 25 mg/kg): 7.1

Cc1cc(C2=NOC(c3cc(Cl)c(F)c(Cl)c3)(C(F)(F)F)C2)ccc1C(=O)NCc1ccc2c(c1)C(C)(C)OB2O (stereo not shown) [Compound 3, 4-(5-(3,5-Dichloro-4-fluorophenyl)-5-(trifluoromethyl)-4,5-dihydroisoxazol-3-yl)-N-((1-hydroxy-3,3-dimethyl-1,3-dihydrobenzo[c][1,2]oxaborol-5-yl)methyl)-2-methylbenzamide]
mortality at 300 µM [1]: ≥ 80% | Geometric mean group live parasite counts [4, 11]: 0.0 | % efficacy [4, 12]: (100) % | Geometric mean group live parasite counts [4, 12]: 0.0 | Geometric mean group live parasite counts [4, 13]: 1.2 | Geometric mean group live parasite counts [4, 14]: 13.3

Cc1cc(C2=NOC(c3cc(Cl)cc(Cl)c3)(C(F)(F)F)C2)ccc1C(=O)NCc1ccc2c(c1)B(O)OC2(C)C (stereo not shown) [Compound 5, 4-(5-(3,5-Dichlorophenyl)-5-(trifluoromethyl)-4,5-dihydroisoxazol-3-yl)-N-((1-hydroxy-3,3-dimethyl-1,3-dihydrobenzo[c][1,2]oxaborol-6-yl)-methyl)-2-methyl benzamide]
mortality at 300 µM [1]: ≥ 80% | tolerability ([2]; oral gavage 25 mg/kg): well tolerated | therapeutic efficacy ([4]; 24 hour post-treatment): 100% | therapeutic efficacy ([4]; 48 hour post-treatment): 100% | Residual efficacy ([4]; Day 7): 82.6% | Residual efficacy ([4]; Day 14): 82.7%

Cc1cc(C2=NO[C@@](c3cc(Cl)c(F)c(Cl)c3)(C(F)(F)F)C2)ccc1C(=O)NCc1ccc2c(c1)B(O)OC2(C)C [Compound 11, (S)-4-(5-(3,5-Dichloro-4-fluorophenyl)-5-(trifluoromethyl)-4,5-dihydroisoxazol-3-yl)-N-((1-hydroxy-3,3-dimethyl-1,3-dihydrobenzo[c][1,2]oxaborol-6-yl)methyl)-2-methylbenzamide]
mortality at 300 µM [1]: ≥ 80% | Geometric mean group live parasite counts ([3]; Table 7, oral capsule 25 mg/kg): 2.8 | efficacy ([4]; Example 11, oral capsule 25 mg/kg, through Day 21): ≥ 99% | Geometric mean group live parasite counts [4, 11]: 0.0 | % efficacy [4, 12]: (100) % | Geometric mean group live parasite counts [4, 12]: 0.0 | % efficacy [4, 13]: (98.8) % | Geometric mean group live parasite counts [4, 13]: 0.3 | % efficacy [4, 14]: (99.1) % | Geometric mean group live parasite counts [4, 14]: 0.3 | % efficacy [4, 15]: (99.0) % | Geometric mean group live parasite counts [4, 15]: 0.2 | % efficacy [4, 16]: (95.6) % | Geometric mean group live parasite counts [4, 16]: 1.1 | Geometric mean group live parasite counts ([5]; Table 7, oral capsule 25 mg/kg): 2.5
